# Experimental data as given in ChEMBL document CHEMBL1157041, “Support vector machines: development of QSAR models for predicting anti-HIV-1 activity of TIBO derivatives” (Eur J Med Chem, 2010).
# Tested on: Human immunodeficiency virus 1
# Experiment: Antiviral activity against HIV1 infected in human MT4 cells assessed as protection against virus-induced cytopathic effect
# Format: functional, organism-based
# Details: for IC50: Human immunodeficiency virus 1, MT4; for pIC50: mt4
IC50 [µM],pIC50,SMILES
89.1,–,CCCN1Cc2cccc3[nH]c(=O)n(c23)C[C@@H]1C
43.7,–,C[C@H]1Cn2c(=O)[nH]c3cccc(c32)CN1CC1CC1
57.5,–,C/C=C/CN1Cc2cccc3[nH]c(=O)n(c23)C[C@@H]1C
46.8,–,C=C(C)CN1Cc2cccc3[nH]c(=O)n(c23)C[C@@H]1C
575,–,C#CCN1Cc2cccc3[nH]c(=O)n(c23)C[C@@H]1C
34.7,–,C/C=C\CN1Cc2cccc3[nH]c(=O)n(c23)C[C@@H]1C
37.2,–,C=C(CC)CN1Cc2cccc3[nH]c(=O)n(c23)C[C@@H]1C
28.8,–,C/C=C(\C)CN1Cc2cccc3[nH]c(=O)n(c23)C[C@@H]1C
123,–,C[C@H]1Cn2c(=O)[nH]c3cccc(c32)CN1C/C=C\c1ccccc1
13.5,–,CC1c2cccc3[nH]c(=S)n(c23)[C@@H](C)[C@H](C)N1CC1CC1 (stereo not given in full)
70.8,–,C=CC(=C)CN1Cc2cccc3[nH]c(=O)n(c23)C[C@@H]1C
61.7,–,C=C(Br)CN1Cc2cccc3[nH]c(=O)n(c23)C[C@@H]1C
851,–,COC(=O)CN1Cc2cccc3[nH]c(=O)n(c23)C[C@@H]1C
107,–,C[C@H]1Cn2c(=O)[nH]c3cccc(c32)CN1Cc1ccco1
50.1,–,C=CCCN1Cc2cccc3[nH]c(=O)n(c23)C[C@@H]1C
2.19,–,C[C@@H]1CN(CC2CC2)Cc2cc(Cl)cc3[nH]c(=S)n1c23
12.6,–,CC(C)=CCN1Cc2cccc3nc(O)n(c23)C[C@@H]1C
0.0251,–,CC(C)=CCN1Cc2cc(Cl)c(Cl)c3nc(S)n(c23)C[C@@H]1C
1.15,–,CC(C)=CCN1[C@H](C)Cn2c(=S)[nH]c3cccc(c32)[C@@H]1C
70.8,–,C=CCN1Cc2cccc3[nH]c(=O)n(c23)C[C@@H]1C
100,–,CCCCN1Cc2cccc3[nH]c(=O)n(c23)C[C@@H]1C
34.7,–,C=C(C)CN1Cc2cccc3[nH]c(=O)n(c23)CC1C (stereo not given)
60.3,–,CCCN1Cc2cccc3[nH]c(=O)n(c23)CC1C (stereo not given)
1.66,–,CCCN1Cc2cccc3[nH]c(=S)n(c23)CC1C (stereo not given)
31.6,–,C=C(C)CN1Cc2cccc3[nH]c(=O)n(c23)C(C)C1 (stereo not given)
56.2,–,CC(C)=CCN1C(C)c2cccc3[nH]c(=O)n(c23)[C@@H](C)[C@H]1C (relative stereo)
2.24,–,CC(C)=CCN1C(C)c2cccc3[nH]c(=S)n(c23)[C@@H](C)[C@H]1C (relative stereo)
0.0417,–,CC(C)=CCN1[C@@H](C)Cn2c(=S)[nH]c3cccc(c32)[C@@H]1C (relative stereo)
–,7.36,CC(C)=CCN1Cc2cccc3[nH]c(=S)n(c23)C[C@@H]1C (stereo in doubt; 1)
–,7.01,CC(C)=CCN1Cc2cccc3[nH]c(=S)n(c23)C[C@@H]1C (stereo in doubt; 81)
